In assay [1] the test system is primary human mesenchymal stem cells (hMSCs). The assay is described as follows: Induction of chondrogenesis in primary human mesenchymal stem cells. Type of assay: cell-based. As to conditions: Homo sapiens, Mesenchymal stem cells, 144 h, 6 days; for Emax: chondrogenic nodules, TGF-β3 (10 ng/mL) positive control, read-out: Max. Activity as % TGF-β3 activity; for EC50: concentration required to induce 50% levels of chondrogenesis vs TGF-β3, read-out: Conc (nM) of 50% TGF-β3 activity. The procedure: Representative compounds were screened using primary human mesenchymal stem cells (hMSCs) to determine their ability to induce chondrogenesis (process by which cartilage is developed).
Primary human mesenchymal stem cells (hMSCs) were purchased from Lonza (Walkersville, Md.) and expanded in Mesenchymal Stem Cell Growth Media (Lonza). Cells between passage 3 and 6 were used for the experiments.
Each compound was dissolved in DMSO as a 10 mM stock and used to prepare compound source plates. Serial dilution (1:3, 6-point dose-response curves from 2700 nM to 10 nM) and compound transfer was performed using the ECHO 550 (Labcyte, Sunnyvale, Calif.) into 96-well clear bottom assay plates (Greiner Bio-One) with appropriate DMSO backfill for a final DMSO concentration of 0.03%. hMSCs were plated at 20,000 cells/well in 250 μL/well Incomplete Chondrogenic Induction Medium (Lonza; DMEM, dexamethasone, ascorbate, insulin-transferrin-selenium [ITS supplement], gentamycin-amphotericin [GA-1000], sodium pyruvate, proline and L-glutamine). TGF-β3 (10 ng/mL) was used as a positive control for differentiation while negative control wells were treated with 75 nL DMSO for normalization and calculating EC50 values. Cells were incubated at 37° C. and 5% CO2 for 6 days. To image chondrogenic nodules, the cells were fixed using 4% formaldehyde (Electron Microscopy Sciences), and stained with 2 μg/mL Rhodamine B (Sigma-Aldrich) and 20 μM Nile Red (Sigma-Aldrich) [Johnson K., et. al, A Stem Cell-Based Approach to Cartilage Repair, Science, (2012). 336(6082), 717-721]. The nodules imaged (4 images per well at 4× magnification) by excitation at 531 nm and emission at 625 nm and quantified using the CellInsight CX5 (Thermo Scientific). Number of nodules in each well was normalized to the average of 3 DMSO treated wells on the same plate using Excel (Microsoft Inc.). The normalized averages (fold change over DMSO) of 3 replicate wells for each compound concentration were calculated. Due to solubility limitations of some of the compounds, curve fitting was incomplete leading to inaccurate EC50 determinations.
Using TGF-β3 as a positive control, the concentration of representative compounds required to induce 50% levels of chondrogenesis is reported. In addition, the maximum activity of each compound and the respective dose that each compound reached maximum chondrogenesis activity is reported.

Another assay concerns IL-6. The assay can be described thus: IL-6 inhibition in LPS-stimulated THP-1 monocytes (HTRF). Type of assay: cell-based, human. The following applies: Homo sapiens, THP-1 cells; for EC50: 500 ng/mL LPS, 22 h, HTRF IL-6 readout, 10-point dose-response from 10 μM; for inhibition at 10 µM: LPS stimulated, given only where EC50 >10 μM, top concentration 10 μM, read-out: percentage in parentheses beside EC50 >10 (IL-6 inhibition). In short, it runs like this:
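THP-1 cells serum-reduced (1% FBS, 24 h), then 5000 cells/well preincubated 2 h with compound (10-point 1:3 series from 10 μM, 0.1% DMSO) before 500 ng/mL LPS for 22 h at 37 °C. Secreted IL-6 quantified by HTRF 665/620 ratio; DMSO-normalised duplicates fitted to four-parameter EC50; above 10 μM, % inhibition at 10 μM given.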
(In general: In TR-FRET formats the signal depends on donor and acceptor labels being close together.)

The structures appear in SMILES notation.

As for `CN(C)c1cncc(-c2cnc3[nH]nc(-c4cc5c(-c6cccc(F)c6)cccc5[nH]4)c3c2)c1` [Compound 5, 5-(3-(4-(3-Fluorophenyl)-1H-indol-2-yl)-1H-pyrazolo[3,4-b]pyridin-5-yl)-N,N-dimethylpyridin-3-amine], in assay [1], the Emax is 49%. For the same compound, the EC50 in the assay with IL-6 is 899 nM.

Take `Fc1ccc(-c2cccc3[nH]c(-c4n[nH]c5ncc(-c6cncc(CN7CCCC7)c6)cc45)cc23)cc1` [Compound 35, 3-(4-(4-Fluorophenyl)-1H-indol-2-yl)-5-(5-(pyrrolidin-1-ylmethyl)pyridin-3-yl)-1H-pyrazolo[3,4-b]pyridine]: in assay [1], the Emax was found to be 160% and the EC50 stood at 10 nM. The compound further came in with an EC50 in the assay with IL-6 of 212 nM.

By inhibition is commonly meant how much of the control response was suppressed. In the case of `Fc1ccc(-c2cccc3[nH]c(-c4n[nH]c5ncc(-c6cncc(CN7CCCCC7)c6)cc45)cc23)cc1` [Compound 36, 3-(4-(4-Fluorophenyl)-1H-indol-2-yl)-5-(5-(piperidin-1-ylmethyl)pyridin-3-yl)-1H-pyrazolo[3,4-b]pyridine], in assay [1], the Emax was determined as 67% and the EC50 was determined as 10 nM. Further, in the assay with IL-6, the EC50 was above 10000 nM and the inhibition at 10 µM is 45.5%.

As to `Fc1ccc(-c2cccc3[nH]c(-c4n[nH]c5ncc(-c6cncnc6)cc45)cc23)cc1` [Compound 47, 3-(4-(4-Fluorophenyl)-1H-indol-2-yl)-5-(pyrimidin-5-yl)-1H-pyrazolo[3,4-b]pyridine], in assay [1], the Emax was 135% and the EC50 stood at 10 nM. In the assay on IL-6, the EC50 is above 10000 nM and the inhibition at 10 µM stood at 35.6%.

On to `Nc1cncc(-c2cnc3[nH]nc(-c4cc5c(-c6ccccc6F)cccc5[nH]4)c3c2)c1` [Compound 49, 5-(3-(4-(2-Fluorophenyl)-1H-indol-2-yl)-1H-pyrazolo[3,4-b]pyridin-5-yl) pyridin-3-amine], for which the Emax in assay [1] amounted to 134%. Besides, the EC50 in the assay on IL-6 was 276 nM.

As for `CCNCc1cncc(-c2cnc3[nH]nc(-c4cc5c(-c6ccccc6F)cccc5[nH]4)c3c2)c1` [Compound 52, N-((5-(3-(4-(2-Fluorophenyl)-1H-indol-2-yl)-1H-pyrazolo[3,4-b]pyridin-5-yl)pyridin-3-yl)methyl)ethanamine], the Emax in assay [1] is 64%. Also, the EC50 in the assay on IL-6 came out at 2690 nM.

Regarding `c1cncc(-c2cnc3[nH]nc(-c4cc5c(-c6cccnc6)cccc5[nH]4)c3c2)c1` [Compound 74, 5-(Pyridin-3-yl)-3-(4-(pyridin-3-yl)-1H-indol-2-yl)-1H-pyrazolo[3,4-b]pyridine], the Emax in assay [1] turned out to be 29%. Besides, the EC50 in the assay on IL-6 worked out at 76 nM.

Consider `CC(C)(C)C(=O)Nc1cncc(-c2cnc3[nH]nc(-c4cc5c(-c6cccnc6)cccc5[nH]4)c3c2)c1` [Compound 78, N-(5-(3-(4-(Pyridin-3-yl)-1H-indol-2-yl)-1H-pyrazolo[3,4-b]pyridin-5-yl)pyridin-3-yl)pivalamide], for which, in assay [1], the Emax turned out to be 232% and the EC50 was determined as 300 nM. The compound further gave an EC50 with IL-6 of 88 nM.

Take `CC(C)Nc1cncc(-c2cnc3[nH]nc(-c4cc5c(-c6cccnc6)cccc5[nH]4)c3c2)c1` [Compound 81, N-Isopropyl-5-(3-(4-(pyridin-3-yl)-1H-indol-2-yl)-1H-pyrazolo[3,4-b]pyridin-5-yl)pyridin-3-amine]: in assay [1], the Emax was determined as 264%. Besides, the EC50 in assay [1] worked out at 10 nM; with IL-6, 1560 nM.

For `c1cncc(-c2cccc3[nH]c(-c4n[nH]c5ncc(-c6cncc(CN7CCCCC7)c6)cc45)cc23)c1` [Compound 84, 5-(5-(Piperidin-1-ylmethyl)pyridin-3-yl)-3-(4-(pyridin-3-yl)-1H-indol-2-yl)-1H-pyrazolo[3,4-b]pyridine], in assay [1], the Emax was 82%. Moreover, the results for the EC50 (in assay [1]; with IL-6) were 900 nM and 355 nM, respectively.

As to `O=C(Nc1cncc(-c2cnc3[nH]nc(-c4cc5c(-c6cccnc6)cccc5[nH]4)c3c2)c1)C1CCC1` [Compound 89, N-(5-(3-(4-(Pyridin-3-yl)-1H-indol-2-yl)-1H-pyrazolo[3,4-b]pyridin-5-yl)pyridin-3-yl)cyclobutanecarboxamide], in assay [1], the Emax came to 41%. Besides, the EC50 with IL-6 turned out to be 104 nM.

For the compound `FC1(F)CCN(Cc2cncc(-c3cnc4[nH]nc(-c5cc6c(-c7ccncc7)cccc6[nH]5)c4c3)c2)C1` [Compound 118, 5-(5-((3,3-Difluoropyrrolidin-1-yl)methyl)pyridin-3-yl)-3-(4-(pyridin-4-yl)-1H-indol-2-yl)-1H-pyrazolo[3,4-b]pyridine], the Emax in assay [1] turned out to be 29%. The EC50 in the assay with IL-6 stood at 607 nM.

`Nc1cncc(-c2cnc3[nH]nc(-c4cc5c(-c6ccccn6)cccc5[nH]4)c3c2)c1` [Compound 121, 5-(3-(4-(Pyridin-2-yl)-1H-indol-2-yl)-1H-pyrazolo[3,4-b]pyridin-5-yl) pyridin-3-amine]: the Emax in assay [1] came to 117%. Further, the figures for the EC50 (in assay [1]; with IL-6) were 900 nM and 266 nM, respectively.

As to `CCNCc1cncc(-c2cnc3[nH]nc(-c4cc5c(-c6ccccn6)cccc5[nH]4)c3c2)c1` [Compound 124, N-((5-(3-(4-(Pyridin-2-yl)-1H-indol-2-yl)-1H-pyrazolo[3,4-b]pyridin-5-yl)pyridin-3-yl)methyl)ethanamine], in assay [1], the Emax was determined as 32%. Also, in the assay with IL-6, the EC50 worked out at 194 nM.

On to `O=C(Nc1cncc(-c2cnc3[nH]nc(-c4cc5c(-c6ccccn6)cccc5[nH]4)c3c2)c1)c1ccccc1` [Compound 128, N-(5-(3-(4-(Pyridin-2-yl)-1H-indol-2-yl)-1H-pyrazolo[3,4-b]pyridin-5-yl)pyridin-3-yl)benzamide], for which, in assay [1], the Emax came out at 565% and the EC50 came out at 300 nM. In the assay on IL-6, this compound gave an EC50 of 9 nM.

`c1ccc(-c2cccc3[nH]c(-c4n[nH]c5ncc(-c6cncc(CN7CCCC7)c6)cc45)cc23)nc1` [Compound 131, 3-(4-(Pyridin-2-yl)-1H-indol-2-yl)-5-(5-(pyrrolidin-1-ylmethyl)pyridin-3-yl)-1H-pyrazolo[3,4-b]pyridine]: the Emax in assay [1] worked out at 161%. The compound further gave an EC50 with IL-6 of 1120 nM.

Turning to `CC(C)(C)CC(=O)Nc1cncc(-c2cnc3[nH]nc(-c4cc5c(-c6ccccn6)cccc5[nH]4)c3c2)c1` [Compound 133, 3,3-Dimethyl-N-(5-(3-(4-(pyridin-2-yl)-1H-indol-2-yl)-1H-pyrazolo[3,4-b]pyridin-5-yl)pyridin-3-yl)butanamide], in assay [1], the Emax amounted to 345% and the EC50 is 900 nM. Besides, the EC50 in the assay with IL-6 was 421 nM.

Consider `CCCCC(=O)Nc1cncc(-c2cnc3[nH]nc(-c4cc5c(-c6ccccn6)cccc5[nH]4)c3c2)c1` [Compound 136, N-(5-(3-(4-(Pyridin-2-yl)-1H-indol-2-yl)-1H-pyrazolo[3,4-b]pyridin-5-yl)pyridin-3-yl)pentanamide], for which the Emax in assay [1] came out at 41%. This compound returned an EC50 with IL-6 of 1890 nM.

Consider `Fc1cccc(-c2cccc3[nH]c(-c4n[nH]c5ncc(-c6cncc(OCc7ccccc7)c6)cc45)cc23)c1` [Compound 520, 5-(5-(Benzyloxy)pyridin-3-yl)-3-(4-(3-fluorophenyl)-1H-indol-2-yl)-1H-pyrazolo[3,4-b]pyridine], for which, in the assay with IL-6, the EC50 was above 10000 nM and the inhibition at 10 µM is 31.3%.

For the compound `Fc1ccccc1-c1cccc2[nH]c(-c3n[nH]c4ncc(C5CCNCC5)cc34)cc12` [Compound 539, 3-(4-(2-Fluorophenyl)-1H-indol-2-yl)-5-(piperidin-4-yl)-1H-pyrazolo[3,4-b]pyridine], the EC50 with IL-6 worked out at 3600 nM.

On to `Oc1cncc(-c2cnc3[nH]nc(-c4cc5c(-c6cccs6)cccc5[nH]4)c3c2)c1` [Compound 711, 5-(3-(4-(Thiophen-2-yl)-1H-indol-2-yl)-1H-pyrazolo[3,4-b]pyridin-5-yl) pyridin-3-ol], for which the EC50 with IL-6 was 1960 nM.

As for `c1ccc(COc2cncc(-c3cnc4[nH]nc(-c5cc6ncccc6[nH]5)c4c3)c2)cc1` [Compound 1006, 5-(5-(Benzyloxy)pyridin-3-yl)-3-(1H-pyrrolo[3,2-b]pyridin-2-yl)-1H-pyrazolo[3,4-b]pyridine], the EC50 in the assay with IL-6 was found to be 168 nM.

(Values after patent publication US20180214428A1, “3-(1H-INDOL-2-YL)-1H-PYRAZOLO[3,4-B]PYRIDINES AND THERAPEUTIC USES THEREOF” (Samumed, LLC, priority 2015, published 2018).)
